Reference: PubChem BioAssay AID1963445 (Molecular Pharmacology Branch, DTP, NCI, 2024)
pIC50: −log10 of the molar value.

Tested on: MCF7 complex spheroid growth, % test/control
Test: Anticancer human tumor MCF7 cell line growth inhibition [Asc];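 also: spheroids exposed to compounds for 7 days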;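 as to viability, T/C: 100% = DMSO vehicle control wells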
Settings: for pIC50: curve of first compound; for viability, T/C: stronger effect = lower value
How it was run: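 Tumor cells were grown as multicellular spheroids with stromal HUVEC and mesenchymal stem cells and treated singly or in combination. Concentrations fell in half-log steps from the clinical Cmax, or from 10 microM where none was known.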

[1] = second compound 0.00949 µM, first compound 0.0316 µM
[2] = second compound 0.00949 µM, first compound 0.1 µM
[3] = second compound 0.00949 µM, first compound 0.316 µM
[4] = second compound 0.00949 µM, first compound 1 µM
[5] = second compound 0.03 µM, first compound 0.0316 µM
[6] = second compound 0.03 µM, first compound 0.1 µM
[7] = second compound 0.03 µM, first compound 0.316 µM
[8] = second compound 0.03 µM, first compound 1 µM
[9] = second compound 0.0949 µM, first compound 0.0316 µM
[10] = second compound 0.0949 µM, first compound 0.1 µM
[11] = second compound 0.0949 µM, first compound 0.316 µM
[12] = second compound 0.0949 µM, first compound 1 µM
[13] = second compound 0.3 µM, first compound 0.0316 µM
[14] = second compound 0.3 µM, first compound 0.1 µM
[15] = second compound 0.3 µM, first compound 0.316 µM
[16] = second compound 0.3 µM, first compound 1 µM
[17] = second compound 0.949 µM, first compound 0.0316 µM
[18] = second compound 0.949 µM, first compound 0.1 µM
[19] = second compound 0.949 µM, first compound 0.316 µM
[20] = second compound 0.949 µM, first compound 1 µM
[21] = second compound 3 µM, first compound 0.0316 µM
[22] = second compound 3 µM, first compound 0.1 µM
[23] = second compound 3 µM, first compound 0.316 µM
[24] = second compound 3 µM, first compound 1 µM

SMILES: C=C(F)C(=O)N1CCN(c2nc(OCC3CCCN3C)nc3c2CCN(c2cccc4cccc(Cl)c24)C3)CC1CC#N (centres undefined) + CCN1C(C(=O)NC23CCC(C(=O)O)(CC2)CC3)C(c2cccc(Cl)c2F)C2(C(=O)Nc3cc(Cl)ccc32)C12CCCCC2
- pIC50 (second compound 0.00949 µM): 5.50
- pIC50 (second compound 0.03 µM): 5.49
- pIC50 (second compound 0.0949 µM): 5.93
- pIC50 (second compound 0.3 µM): > 7.50
- pIC50 (second compound 0.949 µM): > 7.50
- pIC50 (second compound 3 µM): > 7.50
- viability, T/C [1]: 103%
- viability, T/C [2]: 115%
- viability, T/C [3]: 109%
- viability, T/C [4]: 89.8%
- viability, T/C (second compound 0.00949 µM, first compound 3.16 µM): 50.4%
- viability, T/C (second compound 0.00949 µM, first compound 10 µM): 0.16%
- viability, T/C [5]: 104%
- viability, T/C [6]: 77.1%
- viability, T/C [7]: 109%
- viability, T/C [8]: 69.3%
- viability, T/C (second compound 0.03 µM, first compound 3.16 µM): 53.8%
- viability, T/C (second compound 0.03 µM, first compound 10 µM): 0.23%
- viability, T/C [9]: 50.4%
- viability, T/C [10]: 52.5%
- viability, T/C [11]: 50.5%
- viability, T/C [12]: 57.5%
- viability, T/C (second compound 0.0949 µM, first compound 3.16 µM): 33.6%
- viability, T/C (second compound 0.0949 µM, first compound 10 µM): 0.14%
- viability, T/C [13]: 30.5%
- viability, T/C [14]: 28%
- viability, T/C [15]: 34.2%
- viability, T/C [16]: 34.8%
- viability, T/C (second compound 0.3 µM, first compound 3.16 µM): 10.5%
- viability, T/C (second compound 0.3 µM, first compound 10 µM): 0.24%
- viability, T/C [17]: 20.6%
- viability, T/C [18]: 20.7%
- viability, T/C [19]: 28.5%
- viability, T/C [20]: 17.1%
- viability, T/C (second compound 0.949 µM, first compound 3.16 µM): 2.09%
- viability, T/C (second compound 0.949 µM, first compound 10 µM): 0.2%
- viability, T/C [21]: 15.2%
- viability, T/C [22]: 15.4%
- viability, T/C [23]: 14.1%
- viability, T/C [24]: 11.8%
- viability, T/C (second compound 3 µM, first compound 3.16 µM): 2.7%
- viability, T/C (second compound 3 µM, first compound 10 µM): 0.44%

SMILES: O=C(c1ccc(F)c(F)c1Nc1ccc(I)cc1F)N1CC(O)([C@@H]2CCCCN2)C1 + CCN1C(C(=O)NC23CCC(C(=O)O)(CC2)CC3)C(c2cccc(Cl)c2F)C2(C(=O)Nc3cc(Cl)ccc32)C12CCCCC2
- pIC50 (second compound 0.00949 µM): < 6.00
- pIC50 (second compound 0.03 µM): < 6.00
- pIC50 (second compound 0.0949 µM): > 8.50
- pIC50 (second compound 0.3 µM): > 8.50
- pIC50 (second compound 0.949 µM): > 8.50
- pIC50 (second compound 3 µM): > 8.50
- viability, T/C (second compound 0.00949 µM, first compound 0.00316 µM): 104%
- viability, T/C (second compound 0.00949 µM, first compound 0.01 µM): 101%
- viability, T/C [1]: 111%
- viability, T/C [2]: 97.2%
- viability, T/C [3]: 94.9%
- viability, T/C [4]: 100%
- viability, T/C (second compound 0.03 µM, first compound 0.00316 µM): 105%
- viability, T/C (second compound 0.03 µM, first compound 0.01 µM): 99.4%
- viability, T/C [5]: 93.9%
- viability, T/C [6]: 96.6%
- viability, T/C [7]: 81.4%
- viability, T/C [8]: 63.5%
- viability, T/C (second compound 0.0949 µM, first compound 0.00316 µM): 50.6%
- viability, T/C (second compound 0.0949 µM, first compound 0.01 µM): 44%
- viability, T/C [9]: 46.5%
- viability, T/C [10]: 44.4%
- viability, T/C [11]: 44.8%
- viability, T/C [12]: 38.7%
- viability, T/C (second compound 0.3 µM, first compound 0.00316 µM): 32.1%
- viability, T/C (second compound 0.3 µM, first compound 0.01 µM): 28%
- viability, T/C [13]: 26.7%
- viability, T/C [14]: 26.6%
- viability, T/C [15]: 33%
- viability, T/C [16]: 24.5%
- viability, T/C (second compound 0.949 µM, first compound 0.00316 µM): 16.4%
- viability, T/C (second compound 0.949 µM, first compound 0.01 µM): 19.6%
- viability, T/C [17]: 14.8%
- viability, T/C [18]: 15.3%
- viability, T/C [19]: 13.4%
- viability, T/C [20]: 13.3%
- viability, T/C (second compound 3 µM, first compound 0.00316 µM): 14.3%
- viability, T/C (second compound 3 µM, first compound 0.01 µM): 14.3%
- viability, T/C [21]: 9.2%
- viability, T/C [22]: 12.3%
- viability, T/C [23]: 14.2%
- viability, T/C [24]: 11%
